Laboratory results taken from patent US9908897B2, “Spirocyclic derivatives” (CHRONOS THERAPEUTICS LIMITED, priority 2014, dated 2018).

Legend:
[1] = target: human dopamine transporter (DAT) (Homo sapiens (Human), UniProt Q01959); assay: Scintillation Proximity Assay (SPA) competition binding, human DAT; settings: recombinant hDAT-CHO membranes, [3H]WIN-35,428
Source text: (§1) Measure of Affinity to the Human Transporters DAT, NET and SERT
In the context of the present invention pKi values (corresponding to the antilogarithm of Ki) are used instead of Ki; pKi are only estimated to be accurate to about 0.3 log unit.
(§2) Scintillation Proximity Assay (SPA) for Human DAT, NET and SERT Binding
(§3) Chinese Hamster Ovary (CHO) cells stably expressing either human DAT (hDAT-CHO) or human NET (hNET-CHO) or human SERT (hSERT-CHO) are used for the membrane preparations for radioligand binding assays using Scintillation proximity Assay (SPA) technique. Each cell line is cultured independently in F-12K Nutrient Mixture containing 10% of Fetal Bovine Serum (FBS) supplemented with 450 μg/ml G-418. When cells are at 70-80% of confluence 3 mM Na Butyrate was added to the cell culture medium. After 24 h of incubation, the culture medium was removed and the cells detached with Versene (DAT) or by scraping (NET and SERT). Cell suspension is centrifuged at 41,000 g for 10 minutes at 4° C. The resultant pellets are re-suspended in 15 volumes of Ice-cold buffer (20 mM HEPES, 145 mM NaCl, 5 mM KCl, pH7.3), homogenized using an Ultra Turrax homogeniser and centrifuged as before. The resultant membrane pellets are re-suspended in up to 15 volume of ice-cold buffer, incubated for 20 minutes at 37-C and centrifuged as before at 41,000 g. The final membrane pellets are re-suspended into 5-10 volumes of ice-cold buffer, dispensed into 0.5 ml aliquots and stored at −80° C. until use. Protein concentration for each preparation is determined using Bio-Rad Protein Assay kit.
(§4) The affinity of the compounds of the invention to the human DAT or NET or SERT transporters is assessed by using the [^3H]WIN-35,428 or [^3H]nisoxetine or [^3H]citalopram binding assays in recombinant human DAT, NET and SERT membranes with the SPA technology. The final assay volume is 50 μL in 384 well plates.
(§5) Briefly, 0.5 μL of test compound in neat DMSO or 0.5 μL of DMSO for total binding (TB) or 0.5 μL of indatraline 1 mM (10 μM final concentration) for non specific binding (NSB) are added to the assay plate. 50 μL of the SPA mixture is added to each well, containing: 30 μg/mL or 10 μg/mL or 25 μg/mL DAT, NET, SERT membranes, respectively; 5 nM [^3H]WIN-35,428 or 5 nM [^3H]nisoxetine or 1 nM [^3H]citalopram, for DAT, NET, SERT assay, respectively; 2.5 mg/mL or 1 mg/mL or 4 mg/mL WGA-PVT SPA beads (PerkinElmer RPNQ0001, for DAT, NET, SERT assay, respectively. All components are added to Assay Buffer (20 mM HEPES pH 7.4, 145 mM NaCl, 5 mM KCl, 0.01% Pluronic F-127). 0.02% BSA was used for DAT binding only. Plates are sealed with Topseal A and centrifuged 1 min, 800 rpm. Plates are loaded into a 1450 Microbeta TriLux (Perkin-Elmer) plate reader and the radioactivity counted after at least 4 hrs or overnight incubation at room temperature. Curve fitting and IC50 estimations are performed using a four parameter model in XLfit (IDBS, Guilford, UK) for Microdoft Excel (Microsoft, Redmond, Wash.).

[2] = target: human norepinephrine transporter (NET) (Homo sapiens (Human), UniProt P23975); assay: Scintillation Proximity Assay (SPA) competition binding, human NET; settings: recombinant hNET-CHO membranes, [3H]nisoxetine
Source text: as §1
(§6) Affinity is expressed in terms of inhibition constant (Ki) of the compounds of the invention for DAT, NET and SERT, and it is typically calculated from the IC50 values obtained in competition experiments using Cheng and Prusoff equation (Cheng and Prusoff, Biochem. Pharmacol. 22:3099, 1973). In the context of the present invention pKi values (corresponding to the antilogarithm of Ki) are used instead of Ki; pKi are only estimated to be accurate to about 0.3 log unit.
as §2, §3, §4, §5

[3] = target: human serotonin transporter (SERT) (Homo sapiens (Human), UniProt P31645); assay: Scintillation Proximity Assay (SPA) competition binding, human SERT; settings: recombinant hSERT-CHO membranes, [3H]citalopram
Source text: as §1, §6, §2, §3, §4, §5

[4] = target: human ERG potassium channel (hERG) (Homo sapiens (Human), UniProt Q12809); assay: hERG tail current recording, Rapid ICE automated patch-clamp; format: cell-based; settings: HEK293 cells stably transfected with hERG
Procedure: Measure of the Effect on hERG Channel by Tail Current Recording Using In Vitro Rapid ICE™
The potency of the compounds of the invention in inhibiting human ERG potassium channel (hERG) tail current is assessed in a recombinant HEK293 cell line stably transfected with hERG cDNA using Rapid ICE™ (Rapid Ion Channel Electrophysiology) assay. Rapid ICE™ is an automated patch-clamp assay utilizing the PatchXpress 7000A system (Molecular Devices Corporation) or the QPatch HTX system (Sophion Bioscience A/S).
Briefly cells are cultivated for 24 to 72 hours before recordings in minimum essential medium supplemented with 10% FBS, 1% non-essential amino acids, 1% sodium pyruvate, 2 mM L-glutamine. The day of the experiment cells are detached with TrypLE and prepared to be loaded on the instrument. For PatchXpress cells are finally resuspended in 150 μl of Extracellular Buffer whereas for QPatch cells are resuspended in 7 ml Serum-Free Media containing 25 mM Hepes and Soybean trypsin inhibitor and immediately placed in the cell storage tank of the machine. The composition of the Extracellular Buffer is (mM): NaCl 137; KCl 4; CaCl2 1.8; MgCl2 1.0; D-glucose 10; N 2 hydroxyethylpiperazine-N′-2-ethanesulfonic acid (HEPES) 10; pH 7.4 with 1 M NaOH. The composition of the pipette solution is (mM): KCl 130; MgCl2 1.0; Ethylene glycol-bis(β-aminoethyl ether)-N,N,N′,N′-tetraacetic acid (EGTA) 5; MgATP 5; HEPES 10; pH 7.2 with 1 M KOH. The voltage protocol includes the following steps: step from −80 mV to −50 mV for 200 ms, +20 mV for 4.8 s, step to −50 mV for 5 s then step to the holding potential of −80 mV. Compounds of the invention are dissolved in DMSO and diluted in Extracellular Buffer to achieve final test concentrations (0.1, 1 and 10 μM) in 0.1% DMSO. The voltage protocol is run and recorded continuously during the experiment. The vehicle, corresponding to 0.1% DMSO in Extracellular Buffer, is then applied for 3 min followed by the test substance in triplicate. The standard combined exposure time is 5 min. The average of tail current amplitude values recorded from 4 sequential voltage pulses is used to calculate for each cell the effect of the test substance by calculating the residual current (% control) compared with vehicle pre-treatment. Data are reported as % inhibition for each concentration tested and IC50 values are estimated using DataXpress or QPatch software. At least two cells are tested, more if results diverge.

human ERG potassium channel (hERG), sequence (Q12809 whole entry): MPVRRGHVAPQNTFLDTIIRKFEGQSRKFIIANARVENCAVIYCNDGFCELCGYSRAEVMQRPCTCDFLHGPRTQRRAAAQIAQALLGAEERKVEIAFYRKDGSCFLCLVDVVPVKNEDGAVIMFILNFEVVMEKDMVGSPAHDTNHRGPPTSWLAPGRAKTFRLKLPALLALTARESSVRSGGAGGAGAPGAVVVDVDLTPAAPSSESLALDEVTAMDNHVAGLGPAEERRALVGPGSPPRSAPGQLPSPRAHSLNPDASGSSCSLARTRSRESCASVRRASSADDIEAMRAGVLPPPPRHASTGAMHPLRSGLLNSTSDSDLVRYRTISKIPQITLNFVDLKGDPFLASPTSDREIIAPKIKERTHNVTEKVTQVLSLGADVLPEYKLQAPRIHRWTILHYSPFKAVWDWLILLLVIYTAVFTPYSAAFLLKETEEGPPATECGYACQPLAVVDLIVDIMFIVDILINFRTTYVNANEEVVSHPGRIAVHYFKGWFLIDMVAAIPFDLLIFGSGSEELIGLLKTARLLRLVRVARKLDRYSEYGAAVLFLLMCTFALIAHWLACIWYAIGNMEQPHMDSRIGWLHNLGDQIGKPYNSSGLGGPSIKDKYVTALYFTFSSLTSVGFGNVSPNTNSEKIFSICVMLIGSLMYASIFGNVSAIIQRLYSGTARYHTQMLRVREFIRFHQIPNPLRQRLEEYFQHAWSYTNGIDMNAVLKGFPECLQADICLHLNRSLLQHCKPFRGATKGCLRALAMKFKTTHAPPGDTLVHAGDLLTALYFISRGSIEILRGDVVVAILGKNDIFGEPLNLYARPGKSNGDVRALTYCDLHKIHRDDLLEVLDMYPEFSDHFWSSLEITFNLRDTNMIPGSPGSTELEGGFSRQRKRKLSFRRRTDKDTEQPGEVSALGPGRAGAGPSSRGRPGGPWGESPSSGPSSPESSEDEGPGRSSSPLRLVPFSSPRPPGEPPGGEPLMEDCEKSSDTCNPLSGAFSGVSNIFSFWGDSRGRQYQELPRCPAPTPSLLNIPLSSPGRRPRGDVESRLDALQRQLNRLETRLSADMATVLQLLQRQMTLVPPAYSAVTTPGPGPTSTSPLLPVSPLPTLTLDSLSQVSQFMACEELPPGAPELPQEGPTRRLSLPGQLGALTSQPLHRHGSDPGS
human norepinephrine transporter (NET), sequence (P23975 whole entry): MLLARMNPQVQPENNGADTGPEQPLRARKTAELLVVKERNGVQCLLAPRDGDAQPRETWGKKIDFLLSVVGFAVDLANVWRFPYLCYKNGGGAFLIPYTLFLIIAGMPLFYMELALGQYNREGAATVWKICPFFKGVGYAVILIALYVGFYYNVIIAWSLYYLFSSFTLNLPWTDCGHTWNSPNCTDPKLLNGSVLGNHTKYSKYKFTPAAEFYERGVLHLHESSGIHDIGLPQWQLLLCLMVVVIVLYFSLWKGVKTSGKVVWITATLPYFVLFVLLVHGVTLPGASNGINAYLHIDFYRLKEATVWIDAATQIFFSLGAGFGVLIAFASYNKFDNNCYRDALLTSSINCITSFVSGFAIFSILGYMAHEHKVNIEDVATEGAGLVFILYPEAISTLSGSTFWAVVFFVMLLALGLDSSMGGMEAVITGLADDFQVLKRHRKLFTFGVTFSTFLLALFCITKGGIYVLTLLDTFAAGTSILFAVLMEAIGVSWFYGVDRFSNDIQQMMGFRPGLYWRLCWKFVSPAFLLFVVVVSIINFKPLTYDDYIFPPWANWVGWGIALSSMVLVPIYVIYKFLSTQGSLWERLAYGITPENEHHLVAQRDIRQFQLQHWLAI
human dopamine transporter (DAT), sequence (Q01959 whole entry): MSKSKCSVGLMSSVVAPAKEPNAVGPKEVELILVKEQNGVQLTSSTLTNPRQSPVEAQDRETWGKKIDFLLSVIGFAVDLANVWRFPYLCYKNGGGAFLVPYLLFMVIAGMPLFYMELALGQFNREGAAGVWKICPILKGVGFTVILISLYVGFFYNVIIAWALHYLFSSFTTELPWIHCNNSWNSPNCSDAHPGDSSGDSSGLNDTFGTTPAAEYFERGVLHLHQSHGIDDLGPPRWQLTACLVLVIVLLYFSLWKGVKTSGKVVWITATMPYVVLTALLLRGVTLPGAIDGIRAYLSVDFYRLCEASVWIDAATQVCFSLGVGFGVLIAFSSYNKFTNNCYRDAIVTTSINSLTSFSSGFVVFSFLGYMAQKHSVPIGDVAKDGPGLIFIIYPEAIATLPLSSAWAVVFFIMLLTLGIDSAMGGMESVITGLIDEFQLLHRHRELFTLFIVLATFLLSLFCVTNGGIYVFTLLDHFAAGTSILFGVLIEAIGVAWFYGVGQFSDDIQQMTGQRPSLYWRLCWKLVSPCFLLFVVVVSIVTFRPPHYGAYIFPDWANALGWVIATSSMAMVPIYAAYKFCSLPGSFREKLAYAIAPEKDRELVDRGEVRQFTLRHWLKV
human serotonin transporter (SERT), sequence (P31645 whole entry): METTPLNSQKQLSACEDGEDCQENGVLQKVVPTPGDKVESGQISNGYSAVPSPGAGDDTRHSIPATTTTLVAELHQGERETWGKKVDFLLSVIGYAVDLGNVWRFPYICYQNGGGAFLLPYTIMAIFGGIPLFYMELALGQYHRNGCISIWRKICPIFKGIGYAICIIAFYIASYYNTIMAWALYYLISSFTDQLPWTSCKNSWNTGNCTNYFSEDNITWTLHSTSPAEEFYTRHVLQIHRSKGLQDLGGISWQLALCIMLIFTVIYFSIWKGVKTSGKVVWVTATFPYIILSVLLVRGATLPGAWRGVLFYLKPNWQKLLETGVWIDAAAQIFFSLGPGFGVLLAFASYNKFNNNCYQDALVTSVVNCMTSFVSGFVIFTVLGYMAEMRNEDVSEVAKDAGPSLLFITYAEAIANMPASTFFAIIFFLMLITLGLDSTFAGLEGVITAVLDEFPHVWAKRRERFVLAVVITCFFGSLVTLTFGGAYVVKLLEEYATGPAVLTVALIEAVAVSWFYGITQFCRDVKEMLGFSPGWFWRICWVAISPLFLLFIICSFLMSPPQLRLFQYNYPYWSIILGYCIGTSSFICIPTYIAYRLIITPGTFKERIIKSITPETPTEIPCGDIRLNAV

COc1cccc(Oc2cc(C)nc(N3CCC4(CC3)CNCCO4)n2)c1.Cl [Example 49, 9-[4-(3-methoxyphenoxy)-6-methylpyrimidin-2-yl]-1-oxa-4,9-diazaspiro[5.5]undecane hydrochloride]
pIC50 DAT [1]: 6.92 | pIC50 NET [2]: 5.45 | pIC50 SERT [3]: 4.67 | pIC50 hERG [4]: 5.5

Fc1cccc(Oc2cc(F)c(F)c(N3CCC4(CC3)CNCCO4)c2)c1 [Example 13, 9-[2,3-difluoro-5-(3-fluorophenoxy)phenyl]-1-oxa-4,9-diazaspiro[5.5]undecane]
pIC50 DAT [1]: 8.38 | pIC50 NET [2]: 6.74 | pIC50 SERT [3]: 6.33 | pIC50 hERG [4]: 5.6

Cc1cc(Oc2cccc(C#N)c2)nc(N2CCC3(CC2)CNCCO3)n1.Cl [Example 46, 3-[(6-methyl-2-{1-oxa-4,9-diazaspiro[5.5]undecan-9-yl}pyrimidin-4-yl)oxy]benzonitrile hydrochloride]
pIC50 DAT [1]: 8.03 | pIC50 NET [2]: 5.85 | pIC50 SERT [3]: 6.11 | pIC50 hERG [4]: 6.6

Fc1cccc(Oc2cc(N3CCC4(CC3)CNCCO4)ccc2F)c1 [Example 11, 9-[4-fluoro-3-(3-fluorophenoxy)phenyl]-1-oxa-4,9-diazaspiro[5.5]undecane]
pIC50 DAT [1]: 6.78 | pIC50 NET [2]: 5.72 | pIC50 SERT [3]: 6.22 | pIC50 hERG [4]: 6.5

Fc1cccc(Oc2cc(F)cc(N3CCC4(CCNC4)CC3)c2)c1 [Example 92, 8-[3-fluoro-5-(3-fluorophenoxy)phenyl]-2,8-diazaspiro[4.5]decane]
pIC50 DAT [1]: 8.84 | pIC50 NET [2]: 7.33 | pIC50 SERT [3]: 7.37 | pIC50 hERG [4]: 6.2

Cc1cc(Oc2cccc(F)c2)nc(N2CCC3(CC2)CNCCO3)n1.Cl [Example 44, 9-[4-(3-fluorophenoxy)-6-methylpyrimidin-2-yl]-1-oxa-4,9-diazaspiro[5.5]undecane hydrochloride]
pIC50 DAT [1]: 8.29 | pIC50 NET [2]: 6.65 | pIC50 SERT [3]: 4.80 | pIC50 hERG [4]: 6.0

Fc1cccc(Oc2cc(F)c(F)cc2N2CCC3(CCCNC3)CC2)c1 [Example 79, 9-[4,5-difluoro-2-(3-fluorophenoxy)phenyl]-2,9-diazaspiro[5.5]undecane]
pIC50 DAT [1]: 7.86 | pIC50 NET [2]: 6.31 | pIC50 SERT [3]: 6.49 | pIC50 hERG [4]: 6.1

Cl.Fc1cccc(Oc2cc(C(F)(F)F)nc(N3CCC4(CCNCC45OCCO5)C3)n2)c1 (stereo not drawn) [Example 95, 8-[4-(3-fluorophenoxy)-6-(trifluoromethyl)pyrimidin-2-yl]-1,4-dioxa-8,13-diazadispiro[4.0.4^6.4^5]tetradecane hydrochloride]
pIC50 DAT [1]: 8.16 | pIC50 NET [2]: 6.09 | pIC50 SERT [3]: 6.29 | pIC50 hERG [4]: 5.6

O=S1(=O)CCNCC12CCN(c1nc(Oc3cccc(F)c3)cc(C(F)(F)F)n1)CC2 [Example 72, 9-[4-(3-fluorophenoxy)-6-(trifluoromethyl)pyrimidin-2-yl]-1λ^6-thia-4,9-diazaspiro[5.5]undecane-1,1-dione]
pIC50 DAT [1]: 7.08 | pIC50 NET [2]: 4.92 | IC50 [3]: > 100 µM | pIC50 hERG [4]: 5.5

CN1CCCNC(=O)C12CCN(c1nc(Oc3cccc(F)c3)cc(C(F)(F)F)n1)CC2 [Example 76, 3-[4-(3-fluorophenoxy)-6-(trifluoromethyl)pyrimidin-2-yl]-7-methyl-3,7,11-triazaspiro[5.6]dodecan-12-one]
pIC50 DAT [1]: 7.28 | pIC50 NET [2]: 4.88 | IC50 [3]: > 100 µM

COc1cc(Cc2ccccc2)nc(N2CCC3(CC2)CNCCO3)n1.Cl [Example 61, 9-(4-benzyl-6-methoxypyrimidin-2-yl)-1-oxa-4,9-diazaspiro[5.5]undecane hydrochloride]
pIC50 DAT [1]: 6.67 | pIC50 NET [2]: 5.29 | pIC50 SERT [3]: 4.89

N#Cc1ccc(Oc2ccccc2)cc1N1CCC2(CC1)CNCCO2 [Example 27, 2-{1-oxa-4,9-diazaspiro[5.5]undecan-9-yl}-4-phenoxybenzonitrile]
pIC50 DAT [1]: 7.54 | pIC50 NET [2]: 5.69 | pIC50 SERT [3]: 5.15
